Key:
Assay type in all cases: functional, cell membranes, Sprague-Dawley, Bile canalicular membrane vesicle
[1] = molecular target: T1, ATP-binding cassette sub-family C member 2 (Rattus norvegicus, UniProt Q63120); experiment: TP_TRANSPORTER: inhibition of L-MTX uptake in bile canalicular membrane vesicles from SD rat
[2] = molecular target: T1, ATP-binding cassette sub-family C member 2; experiment: TP_TRANSPORTER: inhibition of DNP-SG uptake in bile canalicular membrane vesicles from SD rat
[3] = substrate: N[C@@H](CCC(=O)N[C@H](CSc1ccc([N+](=O)[O-])cc1[N+](=O)[O-])C(=O)NCC(=O)O)C(=O)O; experiment: (§1) TP_TRANSPORTER: uptake in bile canalicular membrane vesicles from SD rat
[4] = substrate: CN(Cc1cnc2nc(N)nc(N)c2n1)c1ccc(C(=O)N[C@@H](CCC(=O)O)C(=O)O)cc1; experiment: as §1

Molecule: CN(Cc1cnc2nc(N)nc(N)c2n1)c1ccc(C(=O)N[C@H](CCC(=O)O)C(=O)O)cc1
- Ki [1]: 92.8 µM

Molecule: CN(Cc1cnc2nc(N)nc(N)c2n1)c1ccc(C(=O)N[C@@H](CCC(=O)O)C(=O)O)cc1 [METHOTREXATE]
- Ki [1]: 326 µM
- Ki [2]: 236 µM

B1: ATP-binding cassette sub-family C member 2 (Rattus norvegicus) (protein)
chain: MDKFCNSTFWDLSLLESPEADLPLCFEQTVLVWIPLGFLWLLAPWQLYSVYRSRTKRSSITKFYLAKQVFVVFLLILAAIDLSLALTEDTGQATVPPVRYTNPILYLCTWLLVLAVQHSRQWCVRKNSWFLSLFWILSVLCGVFQFQTLIRALLKDSKSNMAYSYLFFVSYGFQIVLLILTAFSGPSDSTQTPSVTASFLSSITFSWYDRTVLKGYKHPLTLEDVWDIDEGFKTRSVTSKFEAAMTKDLQKARQAFQRRLQKSQRKPEATLHGLNKKQSQSQDVLVLEEAKKKSEKTTKDYPKSWLIKSLFKTFHVVILKSFILKLIHDLLVFLNPQLLKLLIGFVKSSNSYVWFGYICAILMFAVTLIQSFCLQSYFQHCFVLGMCVRTTVMSSIYKKALTLSNLARKQYTIGETVNLMSVDSQKLMDATNYMQLVWSSVIQITLSIFFLWRELGPSILAGVGVMVLLIPVNGVLATKIRNIQVQNMKNKDKRLKIMNEILSGIKILKYFAWEPSFQEQVQGIRKKELKNLLRFGQLQSLLIFILQITPILVSVVTFSVYVLVDSANVLNAEKAFTSITLFNILRFPLSMLPMVTSSILQASVSVDRLERYLGGDDLDTSAIRRVSNFDKAVKFSEASFTWDPDLEATIQDVNLDIKPGQLVAVVGTVGSGKSSLVSAMLGEMENVHGHITIQGSTAYVPQQSWIQNGTIKDNILFGSEYNEKKYQQVLKACALLPDLEILPGGDMAEIGEKGINLSGGQKQRVSLARAAYQDADIYILDDPLSAVDAHVGKHIFNKVVGPNGLLAGKTRIFVTHGIHFLPQVDEIVVLGKGTILEKGSYRDLLDKKGVFARNWKTFMKHSGPEGEATVNNDSEAEDDDDGLIPTMEEIPEDAASLAMRRENSLRRTLSRSSRSSSRRGKSLKNSLKIKNVNVLKEKEKEVEGQKLIKKEFVETGKVKFSIYLKYLQAVGWWSILFIILFYGLNNVAFIGSNLWLSAWTSDSDNLNGTNNSSSHRDMRIGVFGALGLAQGICLLISTLWSIYACRNASKALHGQLLTNILRAPMRFFDTTPTGRIVNRFSGDISTVDDLLPQTLRSWMMCFFGIAGTLVMICMATPVFAIIIIPLSILYISVQVFYVATSRQLRRLDSVTKSPIYSHFSETVTGLPIIRAFEHQQRFLAWNEKQIDINQKCVFSWITSNRWLAIRLELVGNLVVFCSALLLVIYRKTLTGDVVGFVLSNALNITQTLNWLVRMTSEAETNIVAVERISEYINVENEAPWVTDKRPPADWPRHGEIQFNNYQVRYRPELDLVLKGITCNIKSGEKVGVVGRTGAGKSSLTNCLFRILESAGGQIIIDGIDVASIGLHDLRERLTIIPQDPILFSGSLRMNLDPFNKYSDEEVWRALELAHLRSFVSGLQLGLLSEVTEGGDNLSIGQRQLLCLGRAVLRKSKILVLDEATAAVDLETDSLIQTTIRKEFSQCTVITIAHRLHTIMDSDKIMVLDNGKIVEYGSPEELLSNRGSFYLMAKEAGIENVNHTEL
- Km [3]: 10.7 µM
- Km [4]: 296 µM

— ChEMBL document CHEMBL2074089, “Methotrexate is excreted into the bile by canalicular multispecific organic anion transporter in rats” (Cancer Res, 1997)
